Test [1] relates to P388 murine leukemia cells. The experiment in a line: P388 in vitro antitumor screen (inhibition of P388 cell proliferation, MTT assay). It is filed as cell-based. As to conditions: Mus musculus; for IC50: P388 cells, 48-hour incubation, MTT assay. The method, then:
P388 murine leukemia cells, obtained from the National Cancer Institute, Bethesda, MD, were maintained at 37° C. in 5% CO2 in humidified air. Growth medium was Roswell Park Memorial Institute medium 1640 supplemented with 10% heat-inactivated horse serum. Stock cultures of P388 cells were grown in antibiotic-free growth medium and were subcultured (10^5 cells/ml, 25 ml cultures in T-25 plastic tissue culture flasks) every 2-3 days. […] An appropriate volume of the dilution was transferred to duplicate wells in a 96-well plate, evaporated to dryness, and 200 μl of growth medium-containing cells at a density of 1×10^5 cells/ml were added per well (final concentration of extract was 20 μg/ml). […] For daily quality control, each technician determines the IC50 of fluorouracil for inhibition of P388 cell proliferation. After 48-hour incubations, cell number was determined with the MTT assay (below), calculated as a percent of untreated cell growth, converted to percent inhibition, and reported to the chemist requesting the screen.
The initial determination of an IC50 value for inhibition of P388 cell proliferation with a crude, semipure, or pure sample was made by diluting the sample in methanol to the appropriate concentration, and then serial 1:1 dilutions were made in duplicate in a 96-well plate, such that the final concentrations in the assay were 20, 10, 5, 1.25, and 0.625 μg/ml. After solvent was evaporated to dryness, cells were added to each well as described above. After 48-hour incubations, cell numbers were determined with the MTT assay, converted to percent control, and plotted versus the log of the sample concentration. Curves were fitted by least-squares linear regression of logit-transformed data and the concentration of sample that inhibited cell proliferation by 50% was reported to the chemist requesting the screen. If the IC50 value was less than 0.625 μg/ml, additional serial dilutions were made and tested for activity.
MTT or 3-(4,5-dimethylthiazol-2-yl)-2,5-diphenyl-tetrazolium bromide is used in an established method (J. Immunol. Methods [1983] 65:55-63) to enumerate cells rather than "Coulter counting." For screening purposes, the correlation between percent inhibition determined for actual crude extracts with the Coulter counter and MTT method was very good (r=0.953, n=102 separate determinations of activity at 20 μg/ml), and no extract that was positive as determined by actual cell counts was lost using the MTT assay.
On the technique in general: Formazan colour is commonly taken as a measure of viable cells.

A further test has as its system Bacillus subtilis. The experiment in a line: Antimicrobial disc diffusion assay, Bacillus subtilis. It is filed as cell-based, Bacillus subtilis (ATCC strain 6633). As to conditions: 20 μg/disc, 6.35 mm paper discs, overnight at 37° C., read-out: Antimicrobial Bacillus subtilis zone (diameter of the zone of growth inhibition). Here is the method:
(§1) Unless otherwise noted, all media were autoclaved at 121° C. for 15 minutes.
Standard spore stocks (ATCC strain 6633 were purchased from Difco (#0453-36-0).
B. subtilis was inoculated into Penassay medium (1 mL of stock per 200 mL agar), melted, and cooled to 45° C. Plates were poured as described above.
Paper discs (6.35 mm) were impregnated with the test substance and allowed to dry. They were then placed onto the surface of a test plate prepared as detailed above. Plates were incubated overnight at 37° C., after which time the zones of growh inhibition could be read. These were expressed as the diameter of the zone in millimeters. Standard drugs were used in all cases.
In general terms: A growth-free zone around the sample is the usual read-out of agar diffusion tests.

A further test concerns Candida albicans. The experiment in a line: Antimicrobial MIC protocol, Candida albicans. As to conditions: lowest concentration which completely inhibited growth, 1000 cells/mL, 37° C. overnight. It is filed as cell-based, Candida albicans (ATCC strain 44506). Here is the method: as §1
Candida albicans: C. albicans (ATCC strain 44506 was grown on Sabouraud dextrose agar to produce single colonies, one of which was used to inoculate Sabouraud dextrose broth. The broth was incubated at 37° C. with shaking at 200 rpm for 18 hours. The resultant culture was brought to 10% (v/v) glycerol, frozen at -80° C., and used as the inoculum for the anti-Candida assay.
Two-fold dilutions of the test compound were prepared in 50 μL volumes of a suitable solvent using 96-well microtiter plates. In a separate 96-well plate, 35 μL volumes of either Sabouraud dextrose broth or RPMI-1640 were placed in each well. The test compound (5 μL) was then transferred to the broth. An inoculum of C. albicans in the appropriate medium was added to give a cell density of 1000 cells/mL and a total volume of 50 μL. Plates were incubated at 37° C. overnight.

The structures appear in SMILES notation. ≈ marks a conversion by molar mass, not a printed value. Some results are limits rather than exact numbers.

The source of these data is patent publication US4970226A, “Bis-indole imidazole compounds which are useful antitumor and antimicrobial agents” (Harbor Branch Oceanographic Institution, Inc., priority 1989, dated 1990).

As usually defined, the IC50 is the concentration that inhibits the measured activity by half. A lower IC50 goes with greater potency. Broadly, the zone of inhibition is the size of the clear area around the sample on an inoculated plate. What is called MIC is the smallest concentration in the dilution series that meets the test's criterion for growth inhibition. A high value points to a less susceptible organism. `Brc1ccc2c(-c3c[nH]c(-c4c[nH]c5cc(Br)ccc45)n3)c[nH]c2c1` [Nortopsentin A]: it took 7.6 µg/mL (≈ 16.7 µM) to reach half-maximal inhibition in test [1] (IC50). Further, the zone of inhibition at 20 µg/disc in the test with Bacillus subtilis is 8 mm. Further, in the test with Candida albicans, it took 3.1 µg/mL (≈ 6.8 µM) to inhibit growth (MIC).

In turn, `Brc1ccc2c(-c3nc(-c4c[nH]c5ccccc45)c[nH]3)c[nH]c2c1` [Nortopsentin B] came in with a half-inhibitory concentration (IC50) in test [1] of 7.8 µg/mL (≈ 20.7 µM). Besides, the zone of inhibition at 20 µg/disc with Bacillus subtilis was 9 mm. In addition, it took 6.2 µg/mL (≈ 16.4 µM) to inhibit growth with Candida albicans (MIC).

For `Brc1ccc2c(-c3c[nH]c(-c4c[nH]c5ccccc45)n3)c[nH]c2c1` [Nortopsentin C], the half-maximal inhibitory concentration (IC50) in test [1] amounted to 1.7 µg/mL (≈ 4.51 µM). Further, the zone of inhibition at 20 µg/disc in the test with Bacillus subtilis was determined as 9 mm. Moreover, in the test on Candida albicans, the minimal inhibitory concentration (MIC) came out at 12.5 µg/mL (≈ 33.1 µM).

In the case of `Cn1c(-c2cn(C)c3ccccc23)c[n+](C)c1-c1cn(C)c2cc(Br)ccc12` [Tetramethylnortopsentin B], half-maximal inhibition in test [1] (IC50) required 0.34 µg/mL. The zone of inhibition at 20 µg/disc with Bacillus subtilis amounted to 12 mm. In addition, the minimum inhibitory concentration (MIC) against Candida albicans is greater than 50 µg/mL.

By inhibition is commonly meant the share of the control response that was lost under treatment. Consider `O=c1[nH]cc(F)c(=O)[nH]1` [fluorouracil, reference compound], for which, in test [1] (P388, 48 h, read-out: inhibition of cell replication (positive control)), the inhibition at 0.2 µg/mL was roughly 95%.
